In article PMC8651714 (Scientific Reports, 2021):
Like-named read-outs stand apart in the source and are kept apart here.

Experiments:
human MAO-A (hMAO-A) = conditions: cited from earlier work
human MAO-B (hMAO-B) = conditions: cited from earlier work
hMAO-A = biological target: T1, hMAO-A (Homo sapiens, UniProt P21397); test: Recombinant hMAO-A inhibitory assay (luminescent) and enzyme kinetics; format: biochemical
T1 construct: purchased Sigma Aldrich
T1 sequence (P21397 1-527): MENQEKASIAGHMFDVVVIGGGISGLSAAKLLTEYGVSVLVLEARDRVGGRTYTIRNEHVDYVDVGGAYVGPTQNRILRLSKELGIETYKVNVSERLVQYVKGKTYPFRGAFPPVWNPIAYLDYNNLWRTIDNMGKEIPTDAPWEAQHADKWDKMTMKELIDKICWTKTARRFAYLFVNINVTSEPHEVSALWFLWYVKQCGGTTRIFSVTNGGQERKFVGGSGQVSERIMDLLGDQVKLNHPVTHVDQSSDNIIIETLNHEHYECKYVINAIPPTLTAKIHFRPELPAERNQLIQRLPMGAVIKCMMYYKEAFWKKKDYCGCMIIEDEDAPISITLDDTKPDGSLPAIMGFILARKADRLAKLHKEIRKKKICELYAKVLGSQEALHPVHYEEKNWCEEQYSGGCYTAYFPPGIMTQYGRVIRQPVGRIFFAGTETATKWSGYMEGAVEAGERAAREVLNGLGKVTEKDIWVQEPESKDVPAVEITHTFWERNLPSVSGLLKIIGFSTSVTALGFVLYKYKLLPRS

[1] = biological target: T2, human dopamine D2L receptor (Homo sapiens, UniProt P14416); test: Radioligand binding assay, [3H]methylspiperone, HEK-D2LR membranes; conditions: duplicate
T2 construct: host or cells: HEK-293

[2] = biological target: T3, human dopamine D4 receptor (Homo sapiens, UniProt P21917); test: Radioligand binding assay, [3H]methylspiperone, CHO-D4R membranes; conditions: duplicate, read-out: % Inhibition of control-specific binding
T3 construct: host or cells: CHO
T3 sequence (P21917 1-419): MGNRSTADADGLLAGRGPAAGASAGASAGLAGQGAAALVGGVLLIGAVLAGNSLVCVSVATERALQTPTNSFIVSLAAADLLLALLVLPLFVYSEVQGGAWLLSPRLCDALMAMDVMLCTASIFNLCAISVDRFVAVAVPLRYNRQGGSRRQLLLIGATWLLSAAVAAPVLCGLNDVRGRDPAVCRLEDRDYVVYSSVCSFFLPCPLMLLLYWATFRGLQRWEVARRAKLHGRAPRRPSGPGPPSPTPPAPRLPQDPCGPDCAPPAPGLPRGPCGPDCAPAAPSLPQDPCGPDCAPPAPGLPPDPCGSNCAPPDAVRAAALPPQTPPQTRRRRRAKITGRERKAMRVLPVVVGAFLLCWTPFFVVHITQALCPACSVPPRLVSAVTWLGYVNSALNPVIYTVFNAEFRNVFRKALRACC

[3] = biological target: T4, human vasopressin V1A receptor (Homo sapiens, UniProt P37288); conditions: agonist binding, [3H]AVP, 100 µM, duplicate
[4] = biological target: T5, human dopamine D3 receptor (Homo sapiens, UniProt P35462); conditions: 100 µM
MAO from bovine serum = tested on: MAO from bovine serum; parameters: method as in PMID 1913999; conditions: read-out: Concentration for 50% inhibition of MAO activity; cited from earlier work
rat brain MAO-A = conditions: cited from earlier work
rat brain MAO-B = conditions: cited from earlier work
[5] = biological target: human dopamine D1 receptor (Homo sapiens, UniProt P21728); test: cell-based
[6] = biological target: T5, human dopamine D3 receptor; test: cell-based
[7] = biological target: T4, human vasopressin V1A receptor; test: cell-based
hMAO-B = biological target: T6, hMAO-B (Homo sapiens, UniProt P27338); test: biochemical; conditions: for Ki: inhibition constant from secondary plots
T6 sequence (P27338 1-520): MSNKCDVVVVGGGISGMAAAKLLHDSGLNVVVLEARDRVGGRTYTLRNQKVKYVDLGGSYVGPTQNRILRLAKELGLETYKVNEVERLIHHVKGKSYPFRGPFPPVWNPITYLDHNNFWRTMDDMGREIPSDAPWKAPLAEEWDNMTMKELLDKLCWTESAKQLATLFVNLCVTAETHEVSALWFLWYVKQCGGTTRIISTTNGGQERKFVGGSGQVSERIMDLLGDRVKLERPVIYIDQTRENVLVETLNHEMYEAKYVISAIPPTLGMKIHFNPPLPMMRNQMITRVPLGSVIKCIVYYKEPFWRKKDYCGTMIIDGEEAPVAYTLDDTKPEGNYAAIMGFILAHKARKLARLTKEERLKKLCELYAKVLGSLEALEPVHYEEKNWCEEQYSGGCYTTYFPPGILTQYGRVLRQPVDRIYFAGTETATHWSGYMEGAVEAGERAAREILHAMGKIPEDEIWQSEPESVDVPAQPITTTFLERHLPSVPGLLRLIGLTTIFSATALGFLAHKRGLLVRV

[8] = ILG isolated from Colvillea racemosa

SMILES: COc1cc(O)ccc1C(=O)/C=C/c1ccc(O)cc1 [3-Deoxysappanchalcone, 2′-methoxy-4′,4″-dihydroxychalcone, reference compound]
- IC50 (human MAO-A (hMAO-A)): 10.1 µM
- IC50 (human MAO-B (hMAO-B)): 0.68 µM

SMILES: O=C(/C=C/c1ccc(O)cc1)c1ccc(O)cc1O [Isoliquiritigenin, 4,2′,4′-Trihydroxychalcone]
- Ki (hMAO-A; inhibition constant from secondary plots): 0.16 µM
- IC50 (hMAO-A; recombinant hMAO-A, mean ± standard deviation of triplicate assays): 0.68 ± 0.03 µM
- % Inhibition of control-specific binding ([1]; 100 µM): no binding affinity
- inhibition at 100 µM ([1]; read-out: % Inhibition of control-specific binding): 21.3%
- inhibition at 100 µM [2]: 44.8%
- % Inhibition of control-specific binding [3]: 60.8%
- % Stimulation (percentage of control agonist response) [4]: 92.7 ± 0.5%
- IC50 (MAO from bovine serum): > 200 µM
- IC50 (rat brain MAO-A; ILG isolated from Sinofranchetia chinensis, rat brain, read-out: rMAO-A IC50): 13.9 µM
- rMAO-A inhibition type (rat brain MAO-A; previous study): non-competitive inhibition
- IC50 (rat brain MAO-B; ILG isolated from Sinofranchetia chinensis, rat brain, read-out: rMAO-B IC50): 47.2 µM
- rMAO-B inhibition type (rat brain MAO-B; previous study): mixed inhibition
- IC50 (human MAO-A (hMAO-A); [8]): 22.7 ± 1.84 µM
- IC50 (human MAO-A (hMAO-A); earlier report): 41.5 µM
- IC50 (human MAO-B (hMAO-B); [8]): 0.51 ± 0.01 µM
- IC50 (human MAO-B (hMAO-B); earlier report): 21.8 µM
- IC50 [5]: 68.9 ± 0.2 µM
- EC50 [6]: 62.3 ± 0.2 µM
- EC50 [7]: 78.6 ± 2.7 µM
- IC50 (hMAO-B): 0.33 ± 0.02 µM
- Ki (hMAO-B; hMAO-B Kic): 0.094 µM
- Ki (hMAO-B; hMAO-B Kiu): 0.71 ± 0.01 µM

SMILES: O=C1C[C@@H](c2ccc(O)cc2)Oc2cc(O)ccc21 [LG, reference compound]
- IC50 (human MAO-A (hMAO-A)): 0.27 ± 0.04 µM
- IC50 (human MAO-B (hMAO-B)): 0.098 µM
